Measured values as given in PubChem BioAssay (NCI).
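A five-concentration, 48-hour dose response in 96-well plates underlies each endpoint, interpolated linearly between surrounding concentrations. At the GI50, growth is halved. TGI marks complete inhibition of growth.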

Tested on: HOP-92 NSCLC
Experiment: inhibition of tumour cell growth, NCI panel, 48 h

| SMILES | GI50 [µM] | TGI [µM] |
| --- | --- | --- |
| CC(=O)Oc1ccccc1C(=O)N=C1[Se]CCN1C(=O)c1ccccc1OC(C)=O | 1.85 | 3.58 |
| O=S(O)CCCCSSCc1ccccc1CSSCCCCS(=O)O |  | 74.7 |
| CCOC(=O)c1[nH]c(COC(C)=O)c(CCCOC(C)=O)c1CCCOC(C)=O |  | > 100 |
| COc1cc(/C=C2\C(=O)Nc3ccc(F)cc32)cc(OC)c1OC | 5.07 | 42.8 |
| C#C[C@]1(O)CC[C@H]2[C@@H]3CC=C4c5sc(Nc6ccccc6)nc5CC[C@]4(C)[C@H]3CC[C@@]21C | 3.81 | 29.7 |
| O=C(Nc1ccc([N+](=O)[O-])cc1)C1C(=O)C(=O)N(c2ccc([N+](=O)[O-])cc2)C1=O (stereo not drawn) |  | > 100 |
| O=C(CCC/C(CC(=O)c1ccc(Br)cc1)=N\O)Nc1ccccc1 |  | > 100 |
| O=C(/C=C/c1c(O)ccc2ccccc12)c1ccc2ccccc2c1 |  | > 100 |
| CCOC(=O)C1N(S(=O)(=O)c2ccc(C)cc2)CCC12C(c1ccc(OC)cc1)NC1CCCCC12 (stereo not drawn) |  | 80.9 |
| O=C(CSc1nnc(-c2ccccc2NC(=O)C(F)(F)F)c(=O)[nH]1)NC(=O)Nc1ccccc1 |  | > 100 |
| O=C1c2ccn(CCCCNC(CO)(CO)CO)c2C(=O)c2c1c(O)c1ccccc1c2O | 1.89 | 19.6 |
| COC(=O)/C=C/C1C(C(=O)OC)C2(C(=O)OC)CCC1(C(=O)OC)N2 (stereo not drawn) |  | > 100 |
| CC(C)(C)N1CC2(CCCCC2)C1=O |  | > 100 |
| CC(=O)c1c(CBr)n([O-])c2ccccc2[n+]1=O | 7.36 | 24 |
| C#CC(=O)Nc1cccc(Nc2nc3c(c(NCc4ccccc4)n2)CCCC3)c1 | < 0.01 | < 0.01 |
| N#CC(/C(=N/NC(=O)C(=O)NN)C(=O)NC12CC3CC(CC(C3)C1)C2)c1ccccc1 (stereo not drawn) |  | > 100 |

| SMILES | GI50 [µM] | TGI [µM] |
| --- | --- | --- |
| CN=NN(C)C(=O)NC |  | > 100 |
| Nc1c(C(=O)N/N=C/c2ccc(-c3ccc(Cl)cc3)o2)cnn1-c1ccnc2c(C(F)(F)F)cccc12 | 50.7 | > 100 |
| c1ccc2c3ccn4cc5c(cc4c-3nc2c1)CCCC5 | 5.04 | 48.7 |
| CCCCCCCCCc1cc(=O)c2c(O)cccc2o1 |  | > 100 |
| N#CC1Nc2ccccc2[C@@H](O)C1O (stereo partly drawn) |  | > 100 |
| CCN(CC)CC(C)(C)C(=O)/C=C/c1ccc(Cl)c(Cl)c1 | 0.418 | 1.85 |
| CCN(CC)CCNCC(=O)Oc1ccc(/C=C/C(=O)CC(=O)/C=C/c2ccc(OC(=O)CNCCN(CC)CC)c(OC)c2)cc1OC | 3.93 | 33.1 |
| CCOC(=O)CCc1c(C)c2c(OC(C)=O)cc(OC(C)=O)cc2oc1=O |  | > 100 |
| O=C(CN1CCCCC1)N1CCc2c([nH]c3ccccc23)C1c1cccnc1 (stereo not drawn) |  | > 100 |
| COC(=O)C12C3C4C5(C(=O)OC)C(C1C35C(=O)N(C(C)C)C(C)C)C42C(=O)N(C(C)C)C(C)C (stereo not drawn) |  | > 50 |
| Cc1cc(C)n(CCNCCn2nc(C)cc2C)n1 |  | > 100 |
| O=C1CSC(Cc2nc3ccccc3[nH]2)=N1 |  | 57.8 |
| O=C(/C=C/c1ccccc1)/C=C/c1ccccc1 |  | 88.6 |
| N#C/C(=C\c1ccc(O)c(O)c1)C(N)=O |  | > 100 |
| COc1cc2c(cc1OC)C13CCN4CC5=CCOC6CC(=O)N2C1C6C5CC43O (stereo not drawn) |  | > 100 |
| N#CC(C#N)=c1[nH]c2cccc3c2-c2c(cccc2c3=C(C#N)C#N)[nH]1 |  | > 100 |

Tested on: LOX IMVI melanoma
Experiment: inhibition of tumour cell growth, NCI panel, 48 h

| SMILES | TGI [µM] | GI50 [µM] |
| --- | --- | --- |
| O=S(O)CCCCSSCc1ccccc1CSSCCCCS(=O)O | 28.7 |  |
| CCOC(=O)c1[nH]c(COC(C)=O)c(CCCOC(C)=O)c1CCCOC(C)=O | > 100 |  |
| CSC1(CC(=O)N(C)C)C(=O)Nc2ccccc21 (stereo not drawn) | > 100 |  |
| COc1cc(/C=C2\C(=O)Nc3ccc(F)cc32)cc(OC)c1OC | > 100 | 20.5 |
| O=C(Nc1ccc([N+](=O)[O-])cc1)C1C(=O)C(=O)N(c2ccc([N+](=O)[O-])cc2)C1=O (stereo not drawn) | 30.3 |  |
| Cc1cn2c(/C=C3/C(=O)Nc4ccccc43)c(-c3ccc(Cl)cc3)nc2s1 | 12 | 5.84 |
| O=C(CCC/C(CC(=O)c1ccc(Br)cc1)=N\O)Nc1ccccc1 | > 100 |  |
| O=C(/C=C/c1c(O)ccc2ccccc12)c1ccc2ccccc2c1 | > 100 |  |
| CCOC(=O)C1N(S(=O)(=O)c2ccc(C)cc2)CCC12C(c1ccc(OC)cc1)NC1CCCCC12 (stereo not drawn) | > 100 |  |
